According to patent EP0024372A1, “Derivatives of clavulanic acid, their preparation and pharmaceutical compositions containing them” (BEECHAM GROUP PLC, priority 1979, dated 1981):

Key:
Test in all cases: standard MIC microtitre synergy test with ampicillin
Format in all cases: cell-based
[1] = test system: E.coli JT39
Description: (§1) In a standard MIC microtitre synergy test with ampicillin the following results were obtained with the compound of Example 7.

[2] = test system: Klebsiella aerogenes E70
Description: as §1

[3] = test system: Proteus mirabilis C889
Description: as §1

[4] = test system: Staphylococcus aureus Russell; details: one cell spanning Inhibitor Concentration 20, 5 and 1 μg/ml
Description: as §1

[5] = Inhibitor Concentration 1 μg/ml
[6] = Inhibitor Concentration 5 μg/ml
[7] = Inhibitor Concentration 20 μg/ml

MIC microtitre synergy test with ampicillin [1, 5]: 125
MIC microtitre synergy test with ampicillin [1, 6]: 16
MIC microtitre synergy test with ampicillin [1, 7]: 2
MIC microtitre synergy test with ampicillin [2, 5]: 12.5
MIC microtitre synergy test with ampicillin [2, 6]: 6.25
MIC microtitre synergy test with ampicillin [2, 7]: 3.1
MIC microtitre synergy test with ampicillin [3, 5]: 16
MIC microtitre synergy test with ampicillin [3, 6]: 16
MIC microtitre synergy test with ampicillin [3, 7]: 8
MIC microtitre synergy test with ampicillin [4]: - Inhibition -
SMILES: O=C(O)[C@H]1/C(=C/Cc2ccccc2O)O[C@@H]2CC(=O)N21 [Example 7, Lithium 9-(2-hydroxyphenyl)deoxyclavulanate]
